Reference: ChEMBL document CHEMBL1150678, “Bioactive sterols from the starfish Certonardoa semiregularis” (2003)
≈ marks a conversion by molar mass, not a printed value.

How the values were obtained:
Pseudomonas aeruginosa [1] = experiment: Antimicrobial activity against Pseudomonas aeruginosa 1771M isolate after 18 hrs; format: functional
Enterobacter cloacae [2] = experiment: Antimicrobial activity against Enterobacter cloacae 1321E after 18 hrs; format: functional
Escherichia coli [3] = experiment: Antimicrobial activity against Escherichia coli DC0 isolate after 18 hrs; format: functional
Pseudomonas aeruginosa [4] = experiment: Antimicrobial activity against Pseudomonas aeruginosa 1592E isolate after 18 hrs; format: functional
XF498 = experiment: Cytotoxicity against human XF498 cells; format: functional; settings: read-out: ED50 (the source's name)
Escherichia coli [5] = experiment: Antimicrobial activity against Escherichia coli DC2 isolate after 18 hrs; format: functional
A549 = experiment: Cytotoxicity against human A549 cells; format: functional; settings: read-out: ED50 (the source's name)
SK-MEL-2 = experiment: Cytotoxicity against human SK-MEL-2 cells; format: functional; settings: read-out: ED50 (the source's name)
Enterobacter cloacae [6] = experiment: Antimicrobial activity against Enterobacter cloacae P99 after 18 hrs; format: functional
Enterococcus faecium = experiment: Antimicrobial activity against Streptococcus faecium MD8b isolate after 18 hrs; format: functional
Staphylococcus aureus [7] = experiment: Antimicrobial activity against Staphylococcus aureus SG511 isolate after 18 hrs; format: functional
Klebsiella aerogenes = experiment: Antimicrobial activity against Klebsiella aerogenes 1522E after 18 hrs; format: functional
Streptococcus pyogenes [8] = experiment: Antimicrobial activity against Streptococcus pyogenes 308A isolate after 18 hrs; format: functional
Escherichia coli [9] = experiment: Antimicrobial activity against Escherichia coli 1507E isolate after 18 hrs; format: functional
Staphylococcus aureus [10] = experiment: Antimicrobial activity against Staphylococcus aureus 503 isolate after 18 hrs; format: functional
Salmonella typhimurium = experiment: Antimicrobial activity against Salmonella Typhimurium after 18 hrs; format: functional, Salmonella enterica subsp. enterica serovar Typhimurium; settings: Salmonella enterica
Staphylococcus aureus [11] = experiment: Antimicrobial activity against Staphylococcus aureus 285 isolate after 18 hrs; format: functional
HCT-15 = experiment: Cytotoxicity against human HCT15 cells; format: functional; settings: read-out: ED50 (the source's name)
Streptococcus pyogenes [12] = experiment: Antimicrobial activity against Streptococcus pyogenes 77A isolate after 18 hrs; format: functional
Klebsiella oxytoca = experiment: Antimicrobial activity against Klebsiella oxytoca 1082E after 18 hrs; format: functional
Pseudomonas aeruginosa [13] = experiment: Antimicrobial activity against Pseudomonas aeruginosa 9027 isolate after 18 hrs; format: functional
Pseudomonas aeruginosa [14] = experiment: Antimicrobial activity against Pseudomonas aeruginosa 1771 isolate after 18 hrs; format: functional
SK-OV-3 = experiment: Cytotoxicity against human SKOV3 cells; format: functional; settings: read-out: ED50 (the source's name)
Escherichia coli [15] = experiment: Antimicrobial activity against Escherichia coli TEM isolate after 18 hrs; format: functional
Escherichia coli [16] = experiment: Antimicrobial activity against Escherichia coli 078 isolate after 18 hrs; format: functional

Compound	MIC (Pseudomonas aeruginosa [1])	MIC (Enterobacter cloacae [2])	MIC (Escherichia coli [3])	MIC (Pseudomonas aeruginosa [4])	MIC (Escherichia coli [5])	MIC (Enterobacter cloacae [6])	MIC (Enterococcus faecium)	MIC (Staphylococcus aureus [7])	MIC (Klebsiella aerogenes)	MIC (Streptococcus pyogenes [8])	MIC (Escherichia coli [9])	MIC (Staphylococcus aureus [10])	MIC (Salmonella typhimurium)	MIC (Streptococcus pyogenes [12])	MIC (Pseudomonas aeruginosa [14])	EC50 (XF498)	EC50 (A549)	EC50 (SK-MEL-2)	EC50 (HCT-15)	EC50 (SK-OV-3)	other results
C=C(CC[C@@H](C)[C@H]1C[C@@H](O)[C@H]2[C@@H]3C[C@H](O)[C@H]4[C@@H](O)[C@@H](O)CC[C@]4(C)[C@H]3CC[C@@]21C)[C@H](C)CO [CERTONARDOSTEROL B]	25 µg/mL (≈ 53.8 µM)	> 25 µg/mL	> 25 µg/mL	> 25 µg/mL	> 25 µg/mL	> 25 µg/mL	> 25 µg/mL	> 25 µg/mL	> 25 µg/mL	25 µg/mL (≈ 53.8 µM)	> 25 µg/mL	> 25 µg/mL	> 25 µg/mL	> 25 µg/mL	25 µg/mL (≈ 53.8 µM)	4.7 µg/mL (≈ 10.1 µM)	3.6 µg/mL (≈ 7.75 µM)	4.9 µg/mL (≈ 10.5 µM)	6.4 µg/mL (≈ 13.8 µM)	6.9 µg/mL (≈ 14.8 µM)	MIC (Staphylococcus aureus [11]): > 25 µg/mL; MIC (Klebsiella oxytoca): > 25 µg/mL; MIC (Pseudomonas aeruginosa [13]): > 25 µg/mL; MIC (Escherichia coli [15]): > 25 µg/mL; MIC (Escherichia coli [16]): > 25 µg/mL
C=C(CC[C@@H](C)[C@H]1C[C@@H](O)[C@H]2[C@@H]3C[C@H](O)[C@H]4C[C@@H](O)CC[C@]4(C)[C@H]3CC[C@@]21C)[C@H](C)CO [CERTONARDOSTEROL D]	25 µg/mL (≈ 55.7 µM)	> 25 µg/mL	> 25 µg/mL	> 25 µg/mL	> 25 µg/mL	> 25 µg/mL	> 25 µg/mL	> 25 µg/mL	> 25 µg/mL	25 µg/mL (≈ 55.7 µM)	> 25 µg/mL	> 25 µg/mL	> 25 µg/mL	> 25 µg/mL	25 µg/mL (≈ 55.7 µM)	4.8 µg/mL (≈ 10.7 µM)	5.3 µg/mL (≈ 11.8 µM)	5.5 µg/mL (≈ 12.3 µM)	9.6 µg/mL (≈ 21.4 µM)	8.5 µg/mL (≈ 18.9 µM)	MIC (Staphylococcus aureus [11]): > 25 µg/mL; MIC (Klebsiella oxytoca): > 25 µg/mL; MIC (Pseudomonas aeruginosa [13]): > 25 µg/mL; MIC (Escherichia coli [15]): > 25 µg/mL; MIC (Escherichia coli [16]): > 25 µg/mL
CC(/C=C/[C@@H](C)[C@H]1C[C@@H](O)[C@H]2[C@@H]3C[C@H](O)[C@H]4C(O)[C@@H](O)CC[C@]4(C)[C@H]3CC[C@@]21C)CCO (stereo not given in full) [CERTONARDOSTEROL L]	–	–	–	–	–	–	–	–	–	–	–	–	–	–	–	4.5 µg/mL (≈ 9.99 µM)	4.3 µg/mL (≈ 9.54 µM)	4.3 µg/mL (≈ 9.54 µM)	4.2 µg/mL (≈ 9.32 µM)	6 µg/mL (≈ 13.3 µM)	–
C[C@H](CO)[C@H](C)CC[C@@H](C)[C@H]1C[C@@H](O)[C@@H]2[C@]1(C)CC[C@@H]1[C@@]3(C)CC[C@H](O)[C@H](O)[C@@H]3[C@@H](O)C[C@]12O [CERTONARDOSTEROL M]	–	–	–	–	–	–	–	–	–	–	–	–	–	–	–	> 30 µg/mL	30 µg/mL (≈ 62.2 µM)	> 30 µg/mL	> 30 µg/mL	> 30 µg/mL	–
COc1cccc2c1C(=O)c1c(O)c3c(c(O)c1C2=O)C[C@@](O)(C(=O)CO)C[C@@H]3O[C@H]1C[C@H](N)[C@H](O)[C@H](C)O1 [DOXORUBICIN]	–	–	–	–	–	–	–	–	–	–	–	–	–	–	–	0.06 µg/mL (≈ 0.11 µM)	0.02 µg/mL (≈ 0.0368 µM)	0.02 µg/mL (≈ 0.0368 µM)	0.03 µg/mL (≈ 0.0552 µM)	0.17 µg/mL (≈ 0.313 µM)	–
C[C@@H](O)[C@H]1C(=O)N2C(C(=O)O)=C(S[C@@H]3CN[C@H](C(=O)N(C)C)C3)[C@H](C)[C@H]12 [MEROPENEM]	0.1 µg/mL (≈ 0.261 µM)	–	–	0.2 µg/mL (≈ 0.522 µM)	–	–	–	–	–	0.01 µg/mL (≈ 0.0261 µM)	–	–	–	0.004 µg/mL (≈ 0.0104 µM)	0.39 µg/mL (≈ 1.02 µM)	–	–	–	–	–	–

The next lines start with results.

MIC (Pseudomonas aeruginosa [1])	MIC (Enterobacter cloacae [2])	MIC (Escherichia coli [3])	MIC (Pseudomonas aeruginosa [4])	MIC (Escherichia coli [5])	MIC (Enterobacter cloacae [6])	MIC (Enterococcus faecium)	MIC (Staphylococcus aureus [7])	MIC (Klebsiella aerogenes)	MIC (Streptococcus pyogenes [8])	MIC (Escherichia coli [9])	MIC (Staphylococcus aureus [10])	MIC (Salmonella typhimurium)	MIC (Streptococcus pyogenes [12])	MIC (Pseudomonas aeruginosa [14])	Compound	EC50 (XF498)	EC50 (A549)	EC50 (SK-MEL-2)	EC50 (HCT-15)	EC50 (SK-OV-3)	other results
25 µg/mL (≈ 55.2 µM)	> 25 µg/mL	> 25 µg/mL	> 25 µg/mL	> 25 µg/mL	> 25 µg/mL	> 25 µg/mL	> 25 µg/mL	> 25 µg/mL	12.5 µg/mL (≈ 27.6 µM)	> 25 µg/mL	> 25 µg/mL	> 25 µg/mL	> 25 µg/mL	25 µg/mL (≈ 55.2 µM)	CC(C)[C@@H](O)CC[C@@H](C)[C@H]1C[C@@H](O)[C@@H]2[C@]1(C)CC[C@@H]1[C@@]3(C)CC[C@H](O)C[C@@H]3[C@@H](O)C[C@]12O	11.4 µg/mL (≈ 25.2 µM)	11.3 µg/mL (≈ 25 µM)	12.4 µg/mL (≈ 27.4 µM)	19.4 µg/mL (≈ 42.9 µM)	15.6 µg/mL (≈ 34.5 µM)	MIC (Staphylococcus aureus [11]): > 25 µg/mL; MIC (Klebsiella oxytoca): > 25 µg/mL; MIC (Pseudomonas aeruginosa [13]): > 25 µg/mL; MIC (Escherichia coli [15]): > 25 µg/mL; MIC (Escherichia coli [16]): > 25 µg/mL
25 µg/mL (≈ 52 µM)	> 25 µg/mL	> 25 µg/mL	> 25 µg/mL	> 25 µg/mL	> 25 µg/mL	> 25 µg/mL	> 25 µg/mL	> 25 µg/mL	25 µg/mL (≈ 52 µM)	> 25 µg/mL	> 25 µg/mL	> 25 µg/mL	> 25 µg/mL	25 µg/mL (≈ 52 µM)	C=C(CC[C@@H](C)[C@H]1C[C@@H](O)[C@@H]2[C@]1(C)CC[C@@H]1[C@@]3(C)CC[C@H](O)[C@H](O)[C@@H]3[C@@H](O)C[C@]12O)[C@H](C)CO [CERTONARDOSTEROL A]	4.4 µg/mL (≈ 9.15 µM)	3.1 µg/mL (≈ 6.45 µM)	4.1 µg/mL (≈ 8.53 µM)	4.5 µg/mL (≈ 9.36 µM)	7.3 µg/mL (≈ 15.2 µM)	MIC (Staphylococcus aureus [11]): > 25 µg/mL; MIC (Klebsiella oxytoca): > 25 µg/mL; MIC (Pseudomonas aeruginosa [13]): > 25 µg/mL; MIC (Escherichia coli [15]): > 25 µg/mL; MIC (Escherichia coli [16]): > 25 µg/mL
25 µg/mL (≈ 53.8 µM)	> 25 µg/mL	> 25 µg/mL	> 25 µg/mL	> 25 µg/mL	> 25 µg/mL	> 25 µg/mL	> 25 µg/mL	> 25 µg/mL	25 µg/mL (≈ 53.8 µM)	> 25 µg/mL	> 25 µg/mL	> 25 µg/mL	> 25 µg/mL	25 µg/mL (≈ 53.8 µM)	C=C(CC[C@@H](C)[C@H]1C[C@@H](O)[C@@H]2[C@]1(C)CC[C@@H]1[C@@]3(C)CC[C@H](O)C[C@@H]3[C@@H](O)C[C@]12O)[C@H](C)CO [CERTONARDOSTEROL C]	13.3 µg/mL (≈ 28.6 µM)	14.1 µg/mL (≈ 30.3 µM)	15.1 µg/mL (≈ 32.5 µM)	23.9 µg/mL (≈ 51.4 µM)	20.2 µg/mL (≈ 43.5 µM)	MIC (Staphylococcus aureus [11]): > 25 µg/mL; MIC (Klebsiella oxytoca): > 25 µg/mL; MIC (Pseudomonas aeruginosa [13]): > 25 µg/mL; MIC (Escherichia coli [15]): > 25 µg/mL; MIC (Escherichia coli [16]): > 25 µg/mL
> 25 µg/mL	> 25 µg/mL	> 25 µg/mL	> 25 µg/mL	> 25 µg/mL	> 25 µg/mL	> 25 µg/mL	> 25 µg/mL	> 25 µg/mL	25 µg/mL (≈ 55.7 µM)	> 25 µg/mL	> 25 µg/mL	> 25 µg/mL	> 25 µg/mL	> 25 µg/mL	C=C(CC[C@@H](C)[C@H]1C[C@H](O)[C@H]2[C@@H]3C[C@@H](O)[C@H]4C[C@@H](O)CC[C@]4(C)[C@H]3CC[C@@]21C)[C@H](C)CO [CERTONARDOSTEROL E]	4.1 µg/mL (≈ 9.14 µM)	3.9 µg/mL (≈ 8.69 µM)	4.1 µg/mL (≈ 9.14 µM)	4.2 µg/mL (≈ 9.36 µM)	4.9 µg/mL (≈ 10.9 µM)	MIC (Staphylococcus aureus [11]): > 25 µg/mL; MIC (Klebsiella oxytoca): > 25 µg/mL; MIC (Pseudomonas aeruginosa [13]): > 25 µg/mL; MIC (Escherichia coli [15]): > 25 µg/mL; MIC (Escherichia coli [16]): > 25 µg/mL
> 25 µg/mL	> 25 µg/mL	> 25 µg/mL	25 µg/mL (≈ 57.3 µM)	> 25 µg/mL	> 25 µg/mL	> 25 µg/mL	> 25 µg/mL	> 25 µg/mL	25 µg/mL (≈ 57.3 µM)	> 25 µg/mL	> 25 µg/mL	> 25 µg/mL	25 µg/mL (≈ 57.3 µM)	25 µg/mL (≈ 57.3 µM)	CC(C)[C@@H](O)CC[C@@H](C)[C@H]1C[C@@H](O)[C@H]2[C@@H]3C[C@H](O)[C@H]4C[C@@H](O)CC[C@]4(C)[C@H]3CC[C@@]21C [CERTONARDOSTEROL F]	4.3 µg/mL (≈ 9.85 µM)	3.8 µg/mL (≈ 8.7 µM)	3.8 µg/mL (≈ 8.7 µM)	5.5 µg/mL (≈ 12.6 µM)	4.4 µg/mL (≈ 10.1 µM)	MIC (Staphylococcus aureus [11]): > 25 µg/mL; MIC (Klebsiella oxytoca): > 25 µg/mL; MIC (Pseudomonas aeruginosa [13]): > 25 µg/mL; MIC (Escherichia coli [15]): > 25 µg/mL; MIC (Escherichia coli [16]): > 25 µg/mL
